# From patent publication US9526793B1, “Salts of phenylethylamines and inorganic acids and methods of use thereof” (priority 2013, dated 2016)
# Read-outs that look alike come from different tables or passages of the source.
# How the values were obtained:
# [1] = Subject-reported duration of euphoria and of vasodilation (drop in systolic blood pressure, sphygmomanometer); format: in vivo, human; settings: 600 mg oral capsule
# Experimental: (§1) Solid dose capsules (size “00”, gelatin) were prepared containing either 600 mg of 2-phenylethylamine nitrate or equimolar quantities of an admixture of 2-phenylethylamine HCl and sodium nitrate (NaNO3). A placebo filled with an inert substance (200 mesh guar gum) was also prepared. The subject was given a single capsule containing 2-phenylethylamine nitrate, an admixture of 2-phenylethylamine HCl and NaNO3, or the placebo.
# The subject estimated that the effect of the 2-phenylethylamine nitrate lasted substantially longer than the effect of the admixture. For example, the 2-phenylethylamine nitrate produced a sense of euphoria that typically lasted 50% longer than that experienced with the admixture.
# [2] = Sexual performance of the subject (penile erectile genesis and maintainability); format: in vivo, human; settings: single oral capsule
# Experimental: Solid dose capsules were prepared as described in Example 3. The subject was given a single capsule containing 2-phenylethylamine nitrate, an admixture of 2-phenylethylamine HCl and NaNO3, or a placebo.
# Sexual performance was evaluated in the subject by the relative length of time and number of times they were able to maintain an erection and engage in sexual intercourse (i.e., penile erectile genesis and maintainability) with their partner during a given period.
# [3] = Clinical observation of onset and duration of athletic performance-enhancing effects after oral dose; format: in vivo
# [4] = Tolerability of daily oral doses; format: in vivo
# [5] = Length of time the subject maintained a 5.5 mph pace on an elliptical trainer (athletic performance); format: in vivo, human; settings: single oral capsule, 600 mg 2-phenylethylamine nitrate or equimolar admixture
# Experimental: as §1
# After oral administration of the compound, the subject's ability to maintain a speed of about 5.5 mph on an elliptical trainer was measured. The length of time was recorded before the subject became fatigued and was no longer able to maintain this pace (see Table 1). Athletic performance was measured at times soon after administration of the compound before the subject had engaged in significant physical activity that day (at about 9:30 am each day). The subject was blinded to the identity of the capsules.
# [6] = cited from earlier work
# [7] = as measured using the HCl salt; cited from earlier work
Compound,Duration of vasodilation versus the admixture ([1]; measured by drop in systolic blood pressure),"Sense of euphoria: duration longer than that experienced with the admixture ([1]; subject's estimate, versus admixture) [%]",Sexual performance after administration ([2]; compared with admixture or placebo),"Reduction of refractory time between erections ([2]; subject, self-reported) [%]",Time to clinically observable athletic performance-enhancing effects after ingestion ([3]; single dose of 0.100 grams to 0.600 grams) [min],"Time for which athletic performance-enhancing effects are clinically observable ([3]; single, oral dose as low as 0.200 grams) [h]",Daily oral dose tolerated without significant side effects [4] [grams],Percent Improvement Compared to Placebo [5] [%],Time (Minutes) that the subject maintained a 5.5 mph pace on an elliptical ([5]; average of several occasions) [min],half-life ([6]; in vivo) [min],Increase of brain levels when taking an MAO inhibitor ([6]; initial 2-phenylethylamine brain concentration low) [fold],Increase of brain levels when taking an MAO inhibitor ([6]; initial concentration high),pKb [7]
"NCCc1ccccc1.O=[N+]([O-])O [2-Phenylethylamine Nitrate, 2-phenylethylamine nitrate]",at least twice as long,50,surprising enhancement in their sexual performance,~35,≤ 10,≤ 6,≤ 3.00,10,66,,,,
NCCc1ccccc1 [2-phenylethylamine],,,,,,,,,,5 to 10,~1000,3-4 times,4.17
